Experimental data reported in PubChem BioAssay (NCI).
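48-hour exposure; five concentrations; linearly interpolated endpoints. Definition used: TGI = concentration required for complete inhibition of growth.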

Experiments:
Assay in all cases: NCI tumour cell line growth inhibition, 48 h
[1] = tested on: K-562 leukemia
[2] = tested on: NCI-H226 lung
[3] = tested on: U251 CNS
[4] = tested on: UACC-257 melanoma
[5] = tested on: HS 578T breast
[6] = tested on: HOP-92 NSCLC
[7] = tested on: TK-10 renal
[8] = tested on: HL-60(TB) leukemia
[9] = tested on: A549 NSCLC
[10] = tested on: 786-0 renal
[11] = tested on: HCT-15 colon
[12] = tested on: SW-620 colon
[13] = tested on: SF-539 CNS
[14] = tested on: SK-OV-3 ovarian
[15] = tested on: RPMI-8226 leukemia
[16] = tested on: NCI-H460 lung
[17] = tested on: PC-3 prostate
[18] = tested on: T-47D breast
[19] = tested on: SR leukemia
[20] = tested on: CCRF-CEM leukemia
[21] = tested on: SNB-75 CNS
[22] = tested on: OVCAR-4 ovarian
[23] = tested on: NCI-H23 lung
[24] = tested on: SN12C renal
[25] = tested on: DU-145 prostate
[26] = tested on: HCT-116 colon
[27] = tested on: A498 renal
[28] = tested on: MDA-MB-435
[29] = tested on: SK-MEL-2 melanoma
[30] = tested on: KM12 colon
[31] = tested on: NCI/ADR-RES ovarian
[32] = tested on: MDA-MB-231 breast
[33] = tested on: CAKI-1 renal
[34] = tested on: SK-MEL-5 melanoma
[35] = tested on: NCI-H522 lung
[36] = tested on: MALME-3M melanoma
[37] = tested on: UACC-62 melanoma
[38] = tested on: COLO 205 colon
[39] = tested on: SNB-19 CNS
[40] = tested on: OVCAR-8 ovarian
[41] = tested on: HCC-2998 colon
[42] = tested on: MDA-N
[43] = tested on: UO-31 renal
[44] = tested on: ACHN renal
[45] = tested on: SF-295 CNS
[46] = tested on: HT29 colon
[47] = tested on: SK-MEL-28 melanoma
[48] = tested on: MCF7 breast
[49] = tested on: BT-549 breast
[50] = tested on: LOX IMVI melanoma
[51] = tested on: SF-268 CNS
[52] = tested on: IGROV1 ovarian
[53] = tested on: HOP-62 NSCLC
[54] = tested on: OVCAR-5 ovarian
[55] = tested on: OVCAR-3 ovarian
[56] = tested on: M14 melanoma
[57] = tested on: EKVX NSCLC
[58] = tested on: MOLT-4 leukemia

SMILES: OC1CC2CCCN(CCc3c1[nH]c1ccccc31)C2 (centres undefined)
- TGI [1]: > 100 µM
- TGI [2]: > 100 µM
- TGI [3]: > 100 µM
- TGI [4]: > 100 µM
- TGI [5]: > 100 µM
- TGI [6]: > 100 µM
- TGI [7]: > 100 µM
- TGI [8]: > 100 µM
- TGI [9]: > 100 µM
- TGI [10]: > 100 µM
- TGI [11]: > 100 µM
- TGI [12]: > 100 µM
- TGI [13]: > 100 µM
- TGI [14]: > 100 µM
- TGI [15]: > 100 µM
- TGI [16]: > 100 µM
- TGI [17]: > 100 µM
- TGI [18]: > 100 µM
- TGI [19]: > 100 µM
- TGI [20]: > 100 µM
- TGI [21]: > 100 µM
- TGI [22]: > 100 µM
- TGI [23]: > 100 µM
- TGI [24]: > 100 µM
- TGI [25]: > 100 µM
- TGI [26]: > 100 µM
- TGI [27]: > 100 µM
- TGI [28]: > 100 µM
- TGI [29]: > 100 µM
- TGI [30]: > 100 µM
- TGI [31]: > 100 µM
- TGI [32]: > 100 µM
- TGI [33]: > 100 µM
- TGI [34]: > 100 µM
- TGI [35]: > 100 µM
- TGI [36]: > 100 µM
- TGI [37]: > 100 µM
- TGI [38]: > 100 µM
- TGI [39]: > 100 µM
- TGI [40]: > 100 µM
- TGI [41]: > 100 µM
- TGI [42]: > 100 µM
- TGI [43]: > 100 µM
- TGI [44]: > 100 µM
- TGI [45]: > 100 µM
- TGI [46]: > 100 µM
- TGI [47]: > 100 µM
- TGI [48]: > 100 µM
- TGI [49]: > 100 µM
- TGI [50]: > 100 µM
- TGI [51]: > 100 µM

SMILES: COc1ccc(P2(=S)Oc3ccc(C(c4ccccc4)(c4ccccc4)c4ccccc4)cc3O2)cc1 (centres undefined)
- TGI [1]: 33.8 µM
- TGI [2]: 31.6 µM
- TGI [52]: 32.1 µM
- TGI [53]: 41.5 µM
- TGI [3]: 31.9 µM
- TGI [54]: 33.6 µM
- TGI [4]: 34.2 µM
- TGI [5]: 41 µM
- TGI [6]: 32.4 µM
- TGI [7]: 33.4 µM
- TGI [8]: 32.1 µM
- TGI [9]: 30.7 µM
- TGI [10]: 32.2 µM
- TGI [11]: 34.8 µM
- TGI [12]: 34.6 µM
- TGI [13]: 34.4 µM
- TGI [14]: 37.5 µM
- TGI [55]: 31 µM
- TGI [15]: 48.1 µM
- TGI [16]: 34.8 µM
- TGI [17]: 27.1 µM
- TGI [18]: 28 µM
- TGI [19]: 47.5 µM
- TGI [20]: 49 µM
- TGI [21]: 26.8 µM
- TGI [22]: 25.9 µM
- TGI [23]: 31.7 µM
- TGI [24]: 31.7 µM
- TGI [25]: 35.1 µM
- TGI [26]: 32 µM
- TGI [27]: 31.8 µM
- TGI [56]: 27.3 µM
- TGI [28]: 30.1 µM
- TGI [29]: 35.3 µM
- TGI [30]: 28.5 µM
- TGI [57]: 34.6 µM
- TGI [31]: 39.5 µM
- TGI [58]: 41.7 µM
- TGI [32]: 38.9 µM
- TGI [33]: 33.9 µM
- TGI [34]: 36.2 µM
- TGI [35]: 31.9 µM
- TGI [36]: 34.8 µM
- TGI [37]: 26.2 µM
- TGI [38]: 34.5 µM
- TGI [39]: 29.8 µM
- TGI [40]: 29.8 µM
- TGI [41]: 30.6 µM
- TGI [42]: 32.7 µM
- TGI [43]: 30.8 µM
- TGI [44]: 30.5 µM
- TGI [45]: 33.5 µM
- TGI [46]: 33.4 µM
- TGI [47]: 34.3 µM
- TGI [48]: 34.9 µM
- TGI [49]: 41.3 µM
- TGI [50]: 28 µM
- TGI [51]: 32.2 µM
